Assay results taken from ChEMBL document CHEMBL1201862, “PubChem BioAssay data set” (2004).
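Growth conditions: 96-well plates. Treatment: test compound, 48 hours, 5 concentrations. Analysis: linear interpolation between bracketing concentrations; unreached endpoints set to highest concentration. At the GI50, growth is halved.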 Calls of active or inactive are those of the source. No stated cut-off is given here; in the data, active = GI50 up to about 1.1 µM and inactive = higher.

Experiments:
Assay in all cases: NCI tumour cell line growth inhibition, 48 h
ACHN = system: ACHN
SF-539 = system: SF-539
UO-31 = system: UO-31
SK-MEL-5 = system: SK-MEL-5
DU-145 = system: DU-145
SNB-75 = system: SNB-75
OVCAR-3 = system: OVCAR-3
UACC-62 = system: UACC-62
U-251 = system: U-251
MCF7 = system: MCF7
NCI-H23 = system: NCI-H23
HCT-15 = system: HCT-15
EKVX = system: EKVX
MOLT-4 = system: MOLT-4
A498 = system: A498
SF-295 = system: SF-295
SK-OV-3 = system: SK-OV-3
CAKI-1 = system: CAKI-1
MDA-MB-231 = system: MDA-MB-231
Malme-3M = system: Malme-3M
SNB-19 = system: SNB-19
IGROV-1 = system: IGROV-1
RXF 393 = system: RXF 393
OVCAR-8 = system: OVCAR-8
HT-29 = system: HT-29
HCC 2998 = system: HCC 2998
OVCAR-4 = system: OVCAR-4
MDA-MB-435 = system: MDA-MB-435
UACC-257 = system: UACC-257
Hs-578T = system: Hs-578T
SR = system: SR
NCI-H226 = system: NCI-H226
HOP-92 = system: HOP-92
A549 = system: A549
BT-549 = system: BT-549
HCT-116 = system: HCT-116
PC-3 = system: PC-3
K562 = system: K562
NCI/ADR-RES = system: NCI/ADR-RES
TK-10 = system: TK-10
M14 = system: M14
NCI-H460 = system: NCI-H460
NCI-H522 = system: NCI-H522
RPMI-8226 = system: RPMI-8226
SK-MEL-28 = system: SK-MEL-28
HOP-62 = system: HOP-62
MDA-N = system: MDA-N
786-0 = system: 786-0
SK-MEL-2 = system: SK-MEL-2
T47D = system: T47D
KM12 = system: KM12
COLO 205 = system: COLO 205
OVCAR-5 = system: OVCAR-5
SF-268 = system: SF-268
SW-620 = system: SW-620
SN12C = system: SN12C
LOX IMVI = system: LOX IMVI
HL-60 = system: HL-60
CCRF-CEM = system: CCRF-CEM

Structure (SMILES): Oc1cccnc1CN1CCCCC1
- GI50 (ACHN): > 100 µM (inactive)
- GI50 (SF-539): > 100 µM (inactive)
- GI50 (UO-31): > 100 µM (inactive)
- GI50 (SK-MEL-5): > 100 µM (inactive)
- GI50 (DU-145): > 100 µM (inactive)
- GI50 (SNB-75): > 100 µM (inactive)
- GI50 (OVCAR-3): > 100 µM (inactive)
- GI50 (UACC-62): > 100 µM (inactive)
- GI50 (U-251): > 100 µM (inactive)
- GI50 (MCF7): > 100 µM (inactive)
- GI50 (NCI-H23): > 100 µM (inactive)
- GI50 (HCT-15): > 100 µM
- GI50 (EKVX): > 100 µM (inactive)
- GI50 (MOLT-4): > 100 µM (inactive)
- GI50 (A498): > 100 µM (inactive)
- GI50 (SF-295): > 100 µM (inactive)
- GI50 (SK-OV-3): > 100 µM (inactive)
- GI50 (CAKI-1): > 100 µM (inactive)
- GI50 (MDA-MB-231): > 100 µM (inactive)
- GI50 (Malme-3M): > 100 µM (inactive)
- GI50 (SNB-19): > 100 µM (inactive)
- GI50 (IGROV-1): > 100 µM (inactive)
- GI50 (RXF 393): > 100 µM (inactive)
- GI50 (OVCAR-8): > 100 µM (inactive)
- GI50 (HT-29): > 100 µM (inactive)
- GI50 (HCC 2998): > 100 µM (inactive)
- GI50 (OVCAR-4): > 100 µM (inactive)
- GI50 (MDA-MB-435): > 100 µM (inactive)
- GI50 (UACC-257): > 100 µM (inactive)
- GI50 (Hs-578T): > 100 µM (inactive)
- GI50 (SR): > 100 µM (inactive)
- GI50 (NCI-H226): > 100 µM (inactive)
- GI50 (HOP-92): > 100 µM (inactive)
- GI50 (A549): > 100 µM (inactive)
- GI50 (BT-549): > 100 µM (inactive)
- GI50 (HCT-116): > 100 µM (inactive)
- GI50 (PC-3): > 100 µM (inactive)
- GI50 (K562): > 100 µM (inactive)
- GI50 (NCI/ADR-RES): > 100 µM (inactive)
- GI50 (TK-10): > 100 µM (inactive)
- GI50 (M14): > 100 µM (inactive)
- GI50 (NCI-H460): > 100 µM (inactive)
- GI50 (NCI-H522): > 100 µM (inactive)
- GI50 (RPMI-8226): > 100 µM (inactive)
- GI50 (SK-MEL-28): > 100 µM (inactive)
- GI50 (HOP-62): > 100 µM (inactive)
- GI50 (MDA-N): > 100 µM (inactive)
- GI50 (786-0): > 100 µM (inactive)
- GI50 (SK-MEL-2): > 100 µM (inactive)
- GI50 (T47D): > 100 µM (inactive)
- GI50 (KM12): > 100 µM (inactive)
- GI50 (COLO 205): > 100 µM (inactive)
- GI50 (OVCAR-5): > 100 µM (inactive)
- GI50 (SF-268): > 100 µM (inactive)
- GI50 (SW-620): > 100 µM (inactive)
- GI50 (SN12C): > 100 µM (inactive)
- GI50 (LOX IMVI): > 100 µM (inactive)

Structure (SMILES): COc1ccc(C2N(c3ccc(F)c([N+](=O)[O-])c3)C(=O)N3C(c4ccc(OC)cc4)N(c4ccc(F)c([N+](=O)[O-])c4)C(=O)N23)cc1 (configuration not stated)
- GI50 (HL-60): > 100 µM (inactive)
- GI50 (ACHN): > 100 µM (inactive)
- GI50 (SF-539): > 100 µM (inactive)
- GI50 (UO-31): > 100 µM (inactive)
- GI50 (SK-MEL-5): > 100 µM (inactive)
- GI50 (DU-145): > 100 µM (inactive)
- GI50 (SNB-75): > 100 µM (inactive)
- GI50 (OVCAR-3): > 100 µM (inactive)
- GI50 (UACC-62): > 100 µM (inactive)
- GI50 (U-251): > 100 µM (inactive)
- GI50 (MCF7): > 100 µM (inactive)
- GI50 (NCI-H23): > 100 µM (inactive)
- GI50 (HCT-15): > 100 µM
- GI50 (EKVX): > 100 µM (inactive)
- GI50 (A498): > 100 µM (inactive)
- GI50 (SF-295): > 100 µM (inactive)
- GI50 (CAKI-1): > 100 µM (inactive)
- GI50 (MDA-MB-231): 57.1 µM (inactive)
- GI50 (Malme-3M): > 100 µM (inactive)
- GI50 (SNB-19): > 100 µM (inactive)
- GI50 (IGROV-1): > 100 µM (inactive)
- GI50 (RXF 393): > 100 µM (inactive)
- GI50 (OVCAR-8): > 100 µM (inactive)
- GI50 (HT-29): > 100 µM (inactive)
- GI50 (HCC 2998): > 100 µM (inactive)
- GI50 (OVCAR-4): > 100 µM (inactive)
- GI50 (MDA-MB-435): > 100 µM (inactive)
- GI50 (UACC-257): > 100 µM (inactive)
- GI50 (Hs-578T): > 100 µM (inactive)
- GI50 (SR): > 100 µM (inactive)
- GI50 (HOP-92): 23.1 µM (inactive)
- GI50 (A549): > 100 µM (inactive)
- GI50 (BT-549): > 100 µM (inactive)
- GI50 (HCT-116): > 100 µM (inactive)
- GI50 (PC-3): > 100 µM (inactive)
- GI50 (NCI/ADR-RES): > 100 µM (inactive)
- GI50 (CCRF-CEM): > 100 µM (inactive)
- GI50 (TK-10): > 100 µM (inactive)
- GI50 (M14): 65.9 µM (inactive)
- GI50 (NCI-H460): > 100 µM (inactive)
- GI50 (NCI-H522): > 100 µM (inactive)
- GI50 (RPMI-8226): > 100 µM (inactive)
- GI50 (SK-MEL-28): > 100 µM (inactive)
- GI50 (HOP-62): > 100 µM (inactive)
- GI50 (MDA-N): > 100 µM (inactive)
- GI50 (786-0): > 100 µM (inactive)
- GI50 (SK-MEL-2): > 100 µM (inactive)
- GI50 (T47D): > 100 µM (inactive)
- GI50 (KM12): > 100 µM (inactive)
- GI50 (COLO 205): > 100 µM (inactive)
- GI50 (OVCAR-5): > 100 µM (inactive)
- GI50 (SF-268): > 100 µM (inactive)
- GI50 (SW-620): > 100 µM (inactive)
- GI50 (SN12C): > 100 µM (inactive)
- GI50 (LOX IMVI): > 100 µM (inactive)
